Experiment [1] concerns PC-12. Briefly: Cytoprotective activity against corticosterone-induced apoptosis in rat PC12 cells incubated for 24 hrs by MTS assay. Type of experiment: functional, cell-based. On the technique in general: Tetrazolium dyes change colour on reduction, which living cells bring about.
The test system of experiment [2] is Staphylococcus aureus. Briefly: Antibacterial activity against Staphylococcus aureus assessed as inhibition of microbial growth incubated for 12 hrs by microdilution method. Type of experiment: functional, organism-based. In general terms: Dilution methods test growth across graded concentrations, often in twofold steps.
Experiment [3] relates to Salmonella typhi. Description: Antibacterial activity against Salmonella typhi assessed as inhibition of microbial growth incubated for 12 hrs by microdilution method. Format: functional, organism-based. Conditions: Salmonella enterica subsp. enterica serovar Typhi.
The subject of experiment [4] is Gaeumannomyces graminis. Briefly: Antifungal activity against Gaeumannomyces graminis incubated for 48 hrs. Type of experiment: functional, organism-based.
Experiment [5] deals with Verticillium. Description: Antifungal activity against Verticillium cinnabarinum incubated for 48 hrs. Format: functional.

SMILES strings stand for the structures. Activity calls are given as the source filed them. No cut-off for these calls is given here.

Take `COc1cc(O)c2c(c1)[C@@]13O[C@]4(C)C[C@@](O)(C(=O)C[C@@]1(C)O4)[C@H]3OC2=O`: the result in experiment [1] was Active. The outcome in experiment [2], in experiment [3], in experiment [4] and in experiment [5] was inactive.

Regarding `COc1cc(O)c2c(c1)[C@]13O[C@@]4(C)C[C@](O)(C(=O)C[C@]1(C)O4)[C@@H]3OC2=O`, the outcome in experiment [1] was Active. Moreover, the outcome in experiment [2], in experiment [3], in experiment [4] and in experiment [5] was inactive.

Values taken from ChEMBL document CHEMBL4422688, “(+)- and (-)-Alternarilactone A: Enantiomers with a Diepoxy-Cage-like Scaffold from an Endophytic Alternaria sp” (J Nat Prod, 2019).
